Experimental data from patent US20200261391A1, “METHODS OF REDUCING THE RISK OF A CARDIOVASCULAR EVENT IN A STATIN-TREATED SUBJECT BY INCREASING SERUM AND PLASMA EPA AND DPA LEVELS” (Amarin Pharmaceuticals Ireland Limited, priority 2019, published 2020).

Assay: REDUCE-IT change from baseline blood pressure (mixed effects model)
Format: in vivo, human
Conditions: ITT
Method: Blood pressure was measured using a standardized process: • Patient sat for ≥5 minutes with feet flat on the floor and measurement arm supported so that the midpoint of the manometer cuff was at heart level; and • Used a mercury sphygmomanometer or automatic blood pressure device with an appropriately sized cuff with the bladder centered over the brachial artery.
Blood pressure was recorded to the nearest 2 mmHg mark on the manometer or to the nearest whole number on an automatic device. A blood pressure reading was repeated 1 to 2 minutes later, and the second reading recorded to the nearest 2 mmHg mark.
It is contemplated that a number of factors contribute to the significant reduction in the cardiovascular risk. Without intending to be bound by any particular theory, one of the contributing factors might relate to the dose and formulation of the icosapent ethyl administered to the patients, in marked contrast to previous studies of omega-3 fatty acid studies. An additional contributing factor could relate to the patients' blood pressure. […] These differences appear to be modest, but it is contemplated, that they might contribute to the benefits of icosapent ethyl. […]

CC/C=C\C/C=C\C/C=C\C/C=C\C/C=C\CCCC(=O)OCC [icosapent ethyl, eicosapentaenoic acid ethyl ester]
diastolic blood pressure, average placebo-corrected reduction from baseline: 0.5 mm Hg
systolic blood pressure, average placebo-corrected reduction from baseline: 1.3 mm Hg
